≈ marks a conversion by molar mass, not a printed value.
Experiments:
[1] = Charge/discharge cycling of full ORBAT flow cells; details: 25 cm^2 flow cell, 0.2 M solutions, 1 M sulfuric acid, at least 12 cycles
From the text: A flow cell was constructed using fuel cell hardware that has graphite end plates (Electrochem Inc.) and an electrode active area of 25 cm^2. The reactant was circulated using peristaltic pumps (Masterflex) at a flow rate of approximately 0.5-1.0 liter min^-1. Membrane electrode assemblies (MEA) needed for the cell were fabricated in house using procedures similar to those previously reported for direct methanol fuel cells. (G. K. S. Prakash, M. C. Smart, Q. J. Wang, A. Atti, V. Pleynet, B. Yang, K. McGrath, G. A. Olah, S. R. Narayanan, W. Chun, T. Valdez, S. Surampudi, J. Fluorine Chemistry, 125, 1217 (2004); the entire disclosure of which is hereby incorporated by reference). Specifically, two sheets of carbon paper (Toray 030- non-teflonized) were coated with an ink containing 0.1 g of Vulcan XC-72 carbon black and 0.3 g of NAFION®. The coated electrodes were hot pressed with a NAFION® 117 membrane to form a MEA. All full cell experiments were carried out at 23° C. Two glass containers served as reservoirs for the solutions of the redox couples. An argon flow was maintained above these solutions to avoid reaction of the redox couples with oxygen. The current-voltage characteristics of the cells were measured at various states of charge. Charge/discharge studies were carried out under constant current conditions. […]

[2] = Cyclic voltammetry in 1 M potassium hydroxide; type: physicochemical
[3] = Solubility
[4] = Rotating disk electrode and cyclic voltammetry on glassy carbon, 1 mM compound in 1 M sulfuric acid; type: physicochemical
Procedure: Measurement of kinetic parameters and diffusion coefficients was conducted in a three-electrode cell consisting of a rotating glassy carbon disk working electrode, a platinum wire counter electrode, and a mercury/mercuric sulfate reference electrode (E° = +0.65 V). […] The solutions were de-aerated and kept under a blanket of argon gas throughout all the experiments. All measurements were conducted in the potentiodynamic mode (Versastat 300 potentiostat) at a scan rate of 5 mV s^-1 over a range of rotation rates (500 rpm to 3000 rpm). Impedance measurements were also made at each rotation rate. Cyclic voltammetry was conducted on a static glassy carbon electrode at a scan rate of 50 mV s^-1.
(§1) Where n is the number of electrons transferred, F, the Faraday constant, A, electrode area, Do, the diffusion coefficient, v, the kinematic viscosity of the solution and C*, the bulk concentration of the reactants. For n = 2, an active electrode area of 0.1925 cm^2, and a kinematic viscosity of the electrolyte of 0.01 cm^2 s^-1, we were able to evalulate the diffusion coefficient from the slope of the straight line plots in FIG. 11D.
(§2) To determine the kinetic parameters for the charge-transfer process, namely the rate constant and the apparent transfer coeffcient, the logarithm of the kinetic current (after correction for mass-transport losses) was plotted against the observed overpotentials greater than 100 mV, where the Tafel equation is applicable (Eq. 4 and FIG. 11E).
(§3) Where I is the current, Ilim is the limiting current, Iex is the exchange current density, Co and CR are the concentration of the oxidized and reduced species at the surface of the electrode, Co* and CR* are the bulk concentrations of the oxidized and reduced species, α is the transfer coefficient, n is the number of electrons transferred, F is the Faraday constant, E-Erev is the overpotential, R is the gas constant, and T is the temperature. The rate constant, ko , was obtained from the exchange current density (Eq. 5).
as §1, with “plots.” for “plots in FIG. 11D.”
as §2, with “equation derived from the Butler-Volmer Equation” for “equation”, “: […]” for “(Eq. 4 and FIG. 11E).”
as §3, with “using the relationship” for “(Eq. 5).”

SMILES: O=C1c2ccc(S(=O)(=O)O)cc2C(=O)c2ccc(S(=O)(=O)O)cc21 [Anthraquinone 2,6-disulfonic acid, anthraquinone-2,6-disulfonic acid]
- charge-discharge cycling stability (capacity change) [1]: charge-discharge cycling stability similar to AQS
- reversible peak potential vs. MMO [2]: about -0.35 V
- solubility ([3]; Solubility, Table 5): 500 mM (≈ 184 mg/mL)
- solubility ([3]; water, aqueous solubility limit, aqueous): ~500 mM (≈ 184 mg/mL)
- Standard Reduction Potentials: E°(formal) Measured ([4]; 1 M sulfuric acid): 0.19
- kinetic reversibility from cyclic voltammograms ([4]; 1 M sulfuric acid, glassy carbon): less kinetically reversible than AQS
- Diffusion Coefficient, (cm^2 s^-1) ([4]; Table 5, 1 M sulfuric acid, Levich plot): 3.40E-6 cm^2 s^-1
- E½ vs. MSE, Volt ([4]; Table 5, MSE E°=+0.65 V, 1 M sulfuric acid): -0.60 Volt
- Transfer Coefficient, an ([4]; Table 5, Tafel analysis): 0.426
- Exchange Current Density, (A cm^-2) ([4]; Table 5, glassy carbon RDE, 1 M sulfuric acid): 2.97E-6 A cm^-2
- Rate Constant, k° ([4]; Table 5, obtained from exchange current density): 0.000152 cm/s
- Diffusion Coefficient (cm2/sec) ([4]; Table 7): 4.04E-6 cm2/sec
- Exchange Current density (A/cm^2) ([4]; Table 7): 1.81E-6 A/cm^2
- E½ vs. MSE, Volt ([4]; Table 7, 1 M sulfuric acid): -0.58 Volt
- Standard Reduction Potentials: Experimental (E½ values) vs. NHE ([4]; vs. NHE, 1 M sulfuric acid): 0.05

— US20230113398A1, “INEXPENSIVE METAL-FREE ORGANIC REDOX FLOW BATTERY (ORBAT) FOR GRID-SCALE STORAGE” (UNIVERSITY OF SOUTHERN CALIFORNIA, priority 2013, published 2023)
